{
  "source": "patent US7713960B2",
  "about": "“Inhibition of the Raf/Mek/P-Erk pathway for treating cancer” (University of South Florida, priority 2005, dated 2010)",
  "key": {"SNB-19 cells [1]": {"tested_on": "SNB-19 cells", "experiment": "Anchorage-independent growth (soft agar assay), SNB-19", "assay_type": "cell-based, human", "experimental": "Soft Agar Assay—Anchorage independent growth assays were performed as previously described (Lerner et al., 1997). Briefly, agar was diluted to 0.3% in propagation media containing 20,000 cells and either vehicle or ARA-211 and 1 ml of cell/agar mixture plated on top of 2 ml of a 0.6% layer of agar in medium alone. Cells were grown for three to four weeks at 37° C., 10% Co2 and were fed weekly with 100 μl per well of media/treatment. Quantification of colonies was done using a GS-700 scanning densitometer."}, "P-p38": {"tested_on": "P-p38", "experiment": "P-p38 levels (Western blotting), MDA-MB-231", "assay_type": "cell-based, human"}, "P-Erk 1/2": {"tested_on": "P-Erk 1/2", "experiment": "P-Erk 1/2 levels (Western blotting), MDA-MB-231", "assay_type": "cell-based, human", "experimental": "(§1) Western Blotting—Treated cell samples were lysed in 30 mM HEPES, 10 mM NaCl, 5 mM MgCl2, 25 mM NaF, 1 mM EGTA, 1% Triton-X-100, 10% Glycerol, 2 mM Sodium orthovanidate, 10 μg/mL aprotinin, 10 μg/mL soybean trypsin inhibitor, 25 μg/mL leupeptin, 2 mM phenylmethylsulfonylfluoride (PMSF), 6.4 mg/mL p-nitrophenylphosphate for 30 minutes at 4° C., and proteins run on SDS-PAGE gels then transferred to nitrocellulose membranes. Membranes were blocked in either 5% milk in PBS, pH 7.4, containing 0.1% Tween-20 (PBS-T) or 1% BSA in TBS, pH 7.5, containing 0.1% Tween-20 (TBS-T). Phospho-STAT3 and phospho-AKT antibodies were diluted in 1% BSA in TBS-T while phospho-c-Raf, phospho-Mek, and phospho-p44/p42 MAPK antibodies (Cell Signaling) were diluted in 5% milk in PBS-T for either 1 hour at room temperature or overnight at 4° C. HRP-conjugated secondary antibodies (Jackson ImmunoResearch, West Grove, Pa.) were diluted in 5% milk in PBS-T or TBS-T at a 1:1000 dilution for one hour at room temperature. Western blots results were visualized using enhanced chemiluminescence. Stripping of the membranes for reblotting was done using stripping buffer (62.5 mM Tris pH 7.6, 2% SDS, 0.7% 2-mercaptoethanol) at 50° C. for 30 minutes."}, "P-c-Raf-1": {"tested_on": "P-c-Raf-1", "experiment": "P-c-Raf-1 levels (Western blotting), MDA-MB-231", "assay_type": "cell-based, human", "experimental": "as §1"}, "P-Akt": {"tested_on": "P-Akt", "experiment": "P-Akt levels (Western blotting), MDA-MB-231", "assay_type": "cell-based, human", "experimental": "as §1"}, "HCT-116 cells [2]": {"tested_on": "HCT-116 cells", "experiment": "Apoptosis assay (Cell Death Detection ELISA), HCT-116", "assay_type": "cell-based, human", "settings": "48 hours, two single values, dihydrochloride", "experimental": "Apoptosis Assay—Apoptosis was analyzed using the Cell Death Detection ELISA (Roche, Indianapolis, Ind.) measuring cytoplasmic histone-associated mono- and oligonucleosome DNA fragments. Procedures were carried out according to the manufacturers protocol. Briefly, 1×10^5 cells were plated in 60 mm dishes and treated with various doses of ARA-211 or vehicle for 48 hours. Cells were lysed with the provided lysis buffer and lysate was incubated on the ELISA plate for 1 hour to capture the histone associated DNA indicative of apoptotic cells. Anti-DNA peroxidase conjugated antibody was added to detect the cleaved DNA and the microplate was washed and developed with ABTS substrate which was quantitated by microplate reader at 405 nm."}, "HCT-116 cells [3]": {"tested_on": "HCT-116 cells", "experiment": "Anchorage-dependent growth (MTT assay), HCT-116", "assay_type": "cell-based, human", "experimental": "MTT Assay—2000 cells per well were plated into 96 well tissue culture plates, and the cells were allowed to attach overnight at 37° C. with 10% CO2. Cells were then treated with increasing concentrations of ARA-211, or vehicle (DMSO) and incubated for four days. At that time treatment medium was removed and replaced with 100 μl of lmg/ml MTT (Sigma-Aldrich, St. Louis, Mo.) in media and incubated at 37° C., 10% CO2 for 3 hours. After 3 hours the MTT media was removed and replaced with 100 μl/well of DMSO, rocked at room temperature for 5 minutes, then absorbance read at 540 nm on a micro-plate reader."}, "c-Raf-1": {"molecular_target": "T1, c-Raf-1 (Homo sapiens, UniProt P04049)", "T1 construct": "c-Raf-1 and Mek-1, immunoprecipitated from MDA-MB-231 cells; endogenous in cells; host or cells: MDA-MB-231", "T1 sequence (P04049 whole entry)": "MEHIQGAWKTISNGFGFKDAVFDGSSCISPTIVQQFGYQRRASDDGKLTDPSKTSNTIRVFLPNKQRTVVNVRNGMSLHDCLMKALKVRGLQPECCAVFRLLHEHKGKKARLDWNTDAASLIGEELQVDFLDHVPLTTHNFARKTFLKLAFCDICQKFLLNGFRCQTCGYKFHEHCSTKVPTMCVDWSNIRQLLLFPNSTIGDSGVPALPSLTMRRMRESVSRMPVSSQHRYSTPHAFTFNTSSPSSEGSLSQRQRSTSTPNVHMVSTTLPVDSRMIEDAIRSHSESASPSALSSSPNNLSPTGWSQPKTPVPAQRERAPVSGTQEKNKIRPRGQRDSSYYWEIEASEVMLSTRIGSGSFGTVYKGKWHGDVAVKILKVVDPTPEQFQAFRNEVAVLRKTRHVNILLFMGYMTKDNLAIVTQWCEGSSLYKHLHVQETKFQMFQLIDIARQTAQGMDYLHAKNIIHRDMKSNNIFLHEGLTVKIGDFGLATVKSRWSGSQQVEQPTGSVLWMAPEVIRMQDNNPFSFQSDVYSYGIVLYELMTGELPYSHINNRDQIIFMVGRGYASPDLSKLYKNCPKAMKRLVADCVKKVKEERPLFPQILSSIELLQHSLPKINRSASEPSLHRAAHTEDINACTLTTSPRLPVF", "experiment": "In vitro kinase assay, c-Raf-1 immunoprecipitated from MDA-MB-231 cells", "assay_type": "biochemical", "settings": "immunoprecipitated kinase treated in vitro, 10 μM", "experimental": "In Vitro Kinase Assays—MDA-MB-231 cells (2×10^6) were lysed for 30 minutes at 4° C. in RIPA-150 buffer (10 mM Tris pH 7.5, 150 mM NaCl, 10% glycerol, 5 mM EDTA, 1% Triton X-100, 0.1% SDS, 100 μM sodium orthovanadate, 1 μM aprotinin, 10 μM leupeptin, 10 μM antipain). Cell debris was pelleted at 13000 rpm for 15 minutes at 4° C. and the lysate was rocked overnight with 10 μg of either c-Raf or MEK antibodies (Santa Cruz Biotechnologies, Santa Cruz, Calif.). 25 μl of protein A/G PLUS agarose (Santa Cruz Biotechnology) was then added and rocked for 4 hours at 4° C. Samples were spun at 2000 rpm for 5 minutes to collect the agarose beads, which were then washed four times with lysis buffer. On the final wash each pellet was divided into 5. […]"}, "SNB-19 cells [4]": {"tested_on": "SNB-19 cells", "experiment": "Total cellular cAMP measurement, SNB-19", "assay_type": "cell-based, human", "experimental": "Total cellular cAMP measurement—The measurement of total cellular cAMP was done using a cAMP Biotrak ™ Enzymeimmunoassay (EIA) system (Amersham Biosciences, Piscataway, N.J.) according to the manufacturer's protocol. Briefly, 2000 cells were plated into each well of a 96 well plate. The next day cells were treated with increasing concentrations of ARA-211 or with vehicle for one hour. Alternatively, MDA-MB-231 cells were pre-treated with antagonists to the α1 (Prazosin, Sigma), α2 (Yohimbine, Sigma), β1 (Metoprolol, Sigma), and β2 (ICI 118.551, Sigma) adrenergic receptors at 100 nM for 15 minutes followed by treatment with 10 μM ARA-211 for 45 minutes. Cells were then lysed directly in the wells using the supplied lysis buffer. The lysate was transferred to a 96-well cAMP ELISA plate, and results were quantified using a Wallac Victor 2 plate reader."}},
  "note": "Several values for one entry are separate records, joined by “and”; a condition that tells them apart may be missing. Equal values may be shown once. Where a name gives a salt, the structure may show the parent alone.",
  "data": [
    {"compound": "CC(C)(C)NCC(O)c1ccc(O)c(CO)n1", "note": "(centres unmarked) [ARA-211, 2-hydroxymethyl-3-hydroxy-6-(1-hydroxy-2-tert-butylaminoethyl) pyridine, dihydrochloride]", "values": [
      {"measurement": "Anchorage Independent Growth (% Inhibition)", "setting": "SNB-19 cells [1]", "result": "5.1 ± 5.0", "unit": "%"},
      {"measurement": "P-p38 levels", "setting": "P-p38", "result": "not"},
      {"measurement": "P-Erk ½ (% Inhibition)", "setting": "P-Erk 1/2; MDA-MB-231", "result": 100, "unit": "%"},
      {"measurement": "levels of P-Erk 1/2", "setting": "P-Erk 1/2; MDA-MB-231, at 10 nM", "result": "suppressed potently"},
      {"measurement": "inhibition of P-Erk 1/2 in cells ectopically expressing constitutively activated Mek-1", "setting": "P-Erk 1/2; MDA-MB-231 with CA-Mek, 10 μM, 48 hours", "result": "resistant"},
      {"measurement": "P-c-Raf-1 levels", "setting": "P-c-Raf-1", "result": "not"},
      {"measurement": "P-Akt levels", "setting": "P-Akt", "result": "not"},
      {"measurement": "Apoptosis (% Induction)", "setting": "HCT-116 cells [2]", "result": "0% and 1.2%"},
      {"measurement": "Anchorage Dependent Growth (% Inhibition)", "setting": "HCT-116 cells [3]", "result": "6.5 ± 4", "unit": "%"},
      {"measurement": "in vitro c-Raf-1 kinase activity", "setting": "c-Raf-1", "result": "did not inhibit"},
      {"measurement": "cAMP (Fold Induction)", "setting": "SNB-19 cells [4]", "result": "1.2 ± 0.4", "unit": "Fold"}
    ]}
  ]
}
